The values below come from patent US11717517B2, “LSD dose identification” (Universitätsspital Basel, priority 2020, dated 2023).

For data set [1] the following is noted: after 200 μg dose as two 100 μg capsules; Steuer et al., 2017; cited from earlier work.
Data set [2] has as its system healthy subjects. Kind of data set: Subjective drug effects (VAS, 5D-ASC, MEQ, AMRS), double-blind placebo-controlled cross-over study. As to the method: (§1) Study design: The study used a double-blind, placebo-controlled, cross-over design with six experimental test sessions to investigate the responses to 1) placebo 2) 25 μg, 3) 50 μg, 4) 100 μg, 5) 200 μg LSD, and 6) 200 μg LSD after ketanserin (40 mg). The washout periods between sessions were at least 10 days. The study was registered at ClinicalTrials.gov (NCT03321136).
Participants: Sixteen healthy subjects (eight men and eight women; mean age±SD: 29±6.4 years; range: 25-52 years). Participants who were younger than 25 years old were excluded from participating in the study. Additional exclusion criteria were age >65 years, pregnancy (urine pregnancy test at screening and before each test session), personal or family (first-degree relative) history of major psychiatric disorders (assessed by the Semi-structured Clinical Interview for Diagnostic and Statistical Manual of Mental Disorders, 4th edition, Axis I disorders by a trained psychiatrist), the use of medications that can interfere with the study medications (e.g. antidepressants, antipsychotics, sedatives), chronic or acute physical illness (abnormal physical exam, electrocardiogram, or hematological and chemical blood analyses), tobacco smoking (>10 cigarettes/day), lifetime prevalence of illicit drug use >10 times (except for Δ^9-tetrahydrocannabinol), illicit drug use within the last 2 months, and illicit drug use during the study (determined by urine drug tests).
Thus, subjects ingested 2 mL of LSD solution and/or placebo (96% ethanol) per session: 1) placebo/placebo, 2) 25 μg LSD/placebo, 3) 25 μg LSD/25 μg LSD, 4) 100 μg LSD/placebo, 5) 100 μg LSD/100 μg LSD, 6. 100 μg LSD/100 μg LSD). Ketanserin was obtained as the marketed drug (KETENSIN®, Janssen) and encapsulated with opaque capsules to ensure blinding. Placebo consisted of identical opaque capsules filled with mannitol. Thus, blinding to treatment was guaranteed by using a double-dummy method, with identical capsules and vials that were filled with mannitol and ethanol, respectively, as placebo. At the end of each session and at the end of the study, the participants were asked to retrospectively guess their treatment assignment.
(§2) Study procedures: The study included a screening, six 25 hour test sessions, and an end-of-study visit. The sessions were conducted in a calm standard hospital room. Only one research subject and one investigator were present during the test sessions. The test sessions began at 7:45 AM. The subjects then underwent baseline measurements. Ketanserin (40 mg) or placebo was administered at 8:00 AM. LSD or placebo was administered at 9:00 AM. The outcome measures were repeatedly assessed for 24 hours. A standardized lunch and dinner were served at 1:30 PM and 6:00 PM, respectively. The subjects were under constant supervision by an investigator until 1:00 AM. Thus, the subjects were never alone during the first 16 hours after drug administration, and the investigator was in a room next to the subject for up to 24 hours. The subjects were sent home the next day at 9:15 AM.
Subjective drug effects: Subjective effects were assessed repeatedly using visual analog scales (VASs) 1 hour before and 0, 0.5, 1, 1.5, 2, 2.5, 3, 4, 5, 6, 7, 8, 9, 10, 11, 12, 14, 16, and 24 hours after LSD administration. […] The VASs were presented as 100-mm horizontal lines (0-100%), marked from “not at all” on the left to “extremely” on the right. The VASs for “concentration”, and “perception of time” were bidirectional (±50%). Marked from “not at all” on the left (−50), to “normal” in the middle (0), to “extremely” on the right (+50) for concentration and “slowed” (−50) and “racing” (+50) for “perception of time”.

The subject of data set [3] is healthy subjects. In words: Autonomic and adverse effects (blood pressure, heart rate, body temperature, List of Complaints). As to the method: as §1, §2
Autonomic, adverse, and endocrine effects: Blood pressure, heart rate, and tympanic body temperature were repeatedly measured 1 hour before and 0, 0.5, 1, 1.5, 2.5, 3, 4, 5, 6, 7, 8, 9, 10, 11, 12, 14, 16, and 24 hours after drug administration as previously described in detail (Hysek et al., 2010). […] This scale yields a total adverse effects score and reliably measures physical and general discomfort.
Data analysis: Peak (Emax and/or Emin) or peak change from baseline (ΔEmax) values were determined for repeated measures. The values were then analyzed using repeated-measures analysis of variance (ANOVA), with drug as within-subjects factor, followed by Tukey post hoc comparisons using Statistica 12 software (StatSoft, Tulsa, Okla., USA). The criterion for significance was p<0.05.

Data set [4] in a line: Stability of oral LSD solution (isomerization to iso-LSD). The format is physicochemical. As to the method: Each dose of LSD was formulated as a solution to be administered orally in 1 ml of 96% ethanol according to GMP (batch BZ17-2; 25 μg and 100 μg vials) and stored free in argon-prefilled vials in the dark at 4° C. The exact analytically confirmed LSD contents (mean±SD) of the 25 μg and 100 μg formulation were […], respectively, after production. Stability of the formulation for longer than the study period was documented in an identically produced previous batch (batch BZ16). […] Vials that were stored at room temperature had higher iso-LSD contents of 0%, 3.1%, 3.4%, 6.7%, and 9.5% after 2, 4, 6, 12 and 24 months, respectively. The 100 μg LSD dose of that was used in the present study would correspond to a dose of approximately 125 μg of LSD tartrate including crystal water, which is the form of LSD that is more likely to be used when acquired illegally (i.e., in blotter form) for recreational use or was used in other recent studies (Bershad et al., 2019; Yanakieva et al., 2019).

A short description of data set [5]: Plasma exposure to LSD and iso-LSD after LSD capsules in previous studies. Particulars: assuming similar bioavailability.
The next data set deals with healthy humans. Particulars: cited from earlier work.
In data set [6] the test system is brain-derived neurotrophic factor (BDNF).
Experimental: Plasma BDNF levels were measured at baseline and 6, 12, and 24 hours after drug administration using the Biosensis Mature BDNF Rapid ELISA Kit (Thebarton, Australia) (Akimoto et al., 2019).
Data set [7] can be described thus: Plasma drug concentrations and pharmacokinetic-pharmacodynamic modeling. The format is in vivo, human. As to the method:
Plasma drug concentrations: Blood was collected into lithium heparin tubes 1 hour before and 0, 0.5, 1, 2, 3, 4, 6, 8, 10, 12, 14, 16, and 24 hours after LSD administration. The blood samples were immediately centrifuged, and the plasma was subsequently stored at −80° C. until analysis. Plasma concentrations of LSD and O-H-LSD were determined using a validated ultra-high-performance liquid chromatography tandem mass spectrometry method as described previously in detail (Holze et al., 2019).
Pharmacokinetic analyses and pharmacokinetic-pharmacodynamic modeling: Pharmacokinetic parameters were estimated using a one-compartment model with first-order input, first-order elimination, and no lag time in Phoenix WinNonlin 6.4 (Certara, Princeton, N.J., USA) as described previously in detail (Holze et al., 2019).

Structures are written as SMILES. Read-outs that look alike come from different tables or passages of the source.

Consider `CCN(CC)C(=O)[C@H]1C=C2c3cccc4[nH]cc(c34)C[C@H]2N(C)C1` [iso-LSD], for which the “plasma AUC24” value in data set [1] was 9.2 ng·h/mL.

Regarding `O=C(c1ccc(F)cc1)C1CCN(CCn2c(=O)[nH]c3ccccc3c2=O)CC1` [Ketanserin], the “effect of ketanserin on LSD effects at the 5-HT2a receptor” value in the data set on healthy subjects [2] (ketanserin 40 mg given prior to 200 μg LSD) is “blocks LSD side effects”.

With `CCN(CC)C(=O)[C@@H]1C=C2c3cccc4[nH]cc(c34)C[C@H]2N(C)C1` [LSD, D-lysergic acid diethylamide base], in the data set with healthy subjects [3] (25-200 μg), the body temperature result is on record as “no effect”. In addition, in the data set on healthy subjects [3] (100 and 200 μg), the heart rate entry is recorded as “moderately but significantly increased”. The “total acute (0-12 hours) adverse effects score on the LC compared with placebo and all other conditions” value in the data set with healthy subjects [3] (100 and 200 μg) is listed as “increased”. The severe adverse events entry with healthy subjects [3] (all conditions) is given as “No severe adverse events were observed”. Besides, in the data set with healthy subjects [3] (doses of 50 μg or higher), the blood pressure result was “moderately but significantly increased”. In addition, the “iso-LSD content (% of initial LSD content)” value in data set [4] (solution in 96% ethanol, batch BZ16, 4° C., 4 months) was determined as 0.1%; in data set [4] (solution in 96% ethanol, batch BZ16, 4° C., 6 months) it was 0.1%; in data set [4] (solution in 96% ethanol, batch BZ16, 4° C., 12 months) it was 1.3%; in data set [4] (solution in 96% ethanol, batch BZ16, 4° C., 18 months), 3.2%; in data set [4] (solution in 96% ethanol, batch BZ16, 4° C., 24 months), 3.6%; in data set [4] (vials at room temperature, 2 months), 0%. Moreover, the “iso-LSD content (% of initial LSD content)” value in data set [4] (vials at room temperature, 4 months) is listed as 3.1%; in data set [4] (vials at room temperature, 6 months), 3.4%; in data set [4] (vials at room temperature, 12 months), 6.7%; in data set [4] (vials at room temperature, 24 months) it was 9.5%. Also, the other decomposition products result in data set [4] (solution stored at 4° C.) is reported as “No other decomposition products were present”. In addition, the “plasma AUC24” value in data set [1] is 21 ng·h/mL. Moreover, the “AUC∞ as % of value expected from confirmed 96 μg LSD doses” value was 61% in data set [5] (100 μg capsule dose) and 76% in data set [5] (200 μg capsule dose). The “subjects with bad drug effects (50% or more on a 0-100% scale at any time point)” value in the data set on healthy humans (0.1 mg LSD, 3 of 24 subjects (Dolder et al., 2017)) is 12.5%; in the data set on healthy humans (0.2 mg LSD, 9 of 16 subjects (Dolder et al., 2017)), 56%. Besides, the “subjects with transient bad drug effects” value in the data set on healthy humans (0.1 mg LSD, 7 of 24 subjects (Holze et al., 2019)) is 29%. For the same compound, the “subjects with marked anxiety” value in the data set on healthy humans (0.2 mg LSD, sixteen healthy humans (Schmid et al., 2015)) is “two”. Further, in the data set with healthy humans (previous studies (Carhart-Harris et al., 2016a; Liechti, 2017)), the “clinical response to 75 μg intravenous LSD versus oral 100 μg dose” value is given as “not significantly different”. Besides, in the data set on healthy subjects [2] (25 μg oral, P<0.05, 16 subjects), the “VAS any drug effect compared with placebo” value is listed as “significant”. Besides, the “VAS good drug effect, dose dependence” value with healthy subjects [2] (25, 50, 100, 200 μg oral) was “dose-dependent good drug effects up to the 100 μg dose”. Also, the “anxiety on the 5D-ASC and AMRS” value in the data set on healthy subjects [2] (100 and 200 μg, P<0.01 for both) is on record as “only the 200 μg but not the 100 μg dose of LSD induced significant anxiety”. In addition, the “anxious ego-dissolution on the 5D-ASC, 200 μg versus 100 μg” value with healthy subjects [2] (P<0.05) is reported as “greater”. Also, the “ego-dissolution on the VAS, 200 μg versus 100 μg” value in the data set on healthy subjects [2] (P<0.05) is on record as “significantly greater”. Further, the “subjectively negative nadir effects, 200 μg versus 100 μg” value in the data set with healthy subjects [2] (P<0.05) is on record as “greater”. Further, the “most scales (particularly positive subjective effects) with increasing doses” value in the data set on healthy subjects [2] (at the 100 μg dose, no significant differences between 100 and 200 μg) is reported as “ceiling effect was reached”. Besides, the “BDNF plasma concentration compared with placebo” value in data set [6] (200 μg LSD) is “significantly increased”. In addition, the “time of peak BDNF plasma concentration” value in data set [6] (200 μg LSD) was determined as 6 h. In addition, the “plasma BDNF” value in data set [6] (lower doses of LSD (25, 50, 100 μg)) is “non-significant increases”. Also, the “plasma concentrations of LSD, dose proportionality” value in data set [7] (25, 50, 100, 200 μg oral) is listed as “increased proportionally with increasing doses”. The “VAS bad drug effect, 200 μg compared with 100 μg” value in data set [7] (in vivo) is on record as “higher bad drug effects”. In data set [7] (with increasing doses), the effect duration entry was “longer effect durations”. The “time to offset of the LSD response” value in data set [7] (with increasing doses) is listed as “increased”. In addition, the “time to onset of the LSD response” value in data set [7] (with increasing doses) is reported as “decreased”.
